Data from ChEMBL document CHEMBL2029318, “Synthesis and SAR of selective small molecule neuropeptide Y Y2 receptor antagonists” (Bioorg Med Chem Lett, 2012).
Active and inactive are the calls of the source.

What was measured:
Type in all cases: functional
[1] = molecular target: T1, Neuropeptide Y receptor type 1 (Homo sapiens) (UniProt P25929); test: Antagonist activity at neuropeptide Y receptor Y1 at 10 uM
T1 sequence (whole entry): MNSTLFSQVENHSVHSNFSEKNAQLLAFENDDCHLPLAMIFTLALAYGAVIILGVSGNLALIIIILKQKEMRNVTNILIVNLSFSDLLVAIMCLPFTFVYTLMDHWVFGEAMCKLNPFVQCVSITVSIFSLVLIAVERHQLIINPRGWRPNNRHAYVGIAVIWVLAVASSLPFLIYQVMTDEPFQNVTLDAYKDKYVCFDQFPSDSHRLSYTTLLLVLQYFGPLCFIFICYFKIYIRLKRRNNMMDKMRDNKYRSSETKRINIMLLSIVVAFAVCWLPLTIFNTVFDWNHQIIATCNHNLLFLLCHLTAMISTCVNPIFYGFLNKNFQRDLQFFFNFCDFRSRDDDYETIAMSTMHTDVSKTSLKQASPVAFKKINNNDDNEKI

[2] = molecular target: T2, Neuropeptide Y receptor type 2 (Homo sapiens, UniProt P49146); test: Partial antagonist activity at neuropeptide Y receptor Y2
T2 sequence (P49146 whole entry): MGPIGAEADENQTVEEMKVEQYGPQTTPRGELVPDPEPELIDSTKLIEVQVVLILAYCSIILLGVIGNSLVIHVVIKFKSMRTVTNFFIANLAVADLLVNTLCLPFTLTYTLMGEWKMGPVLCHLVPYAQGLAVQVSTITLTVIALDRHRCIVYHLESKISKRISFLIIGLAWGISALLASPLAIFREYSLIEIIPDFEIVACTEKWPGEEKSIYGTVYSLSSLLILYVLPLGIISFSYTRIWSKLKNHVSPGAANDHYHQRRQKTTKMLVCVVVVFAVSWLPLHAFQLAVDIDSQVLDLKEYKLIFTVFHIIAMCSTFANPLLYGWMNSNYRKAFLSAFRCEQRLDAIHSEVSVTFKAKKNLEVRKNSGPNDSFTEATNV

[3] = molecular target: T2, Neuropeptide Y receptor type 2; test: Antagonist activity at neuropeptide Y receptor Y2
[4] = molecular target: T3, Neuropeptide Y receptor type 2 (Homo sapiens) (UniProt P49146); test: Antagonist activity at neuropeptide Y receptor Y2 at 10 uM
T3 sequence (whole entry): T2 sequence (P49146 whole entry)

Row | Compound | Activity [1] | IC50 [2] | IC50 [3] | Activity [4]
1 | COc1cccc(NC(=S)N2CCC(C(O)(c3ccccc3)c3ccccc3)CC2)c1 | inactive | 8160 nM |  | 
2 | COc1ccc(NC(=S)N2CCC(C(O)(c3ccccc3)c3ccccc3)CC2)cc1 | inactive |  | 1100 nM | 
3 | CCOC(=O)c1ccc(NC(=S)N2CCC(C(O)(c3ccccc3)c3ccccc3)CC2)cc1 | inactive |  | 207 nM | 
4 | CCN(CC)C(=O)c1ccc(OC(=O)N2CCC(C(O)(c3ccccc3)c3ccccc3)CC2)cc1 | inactive |  | 220 nM | 
5 | CCS(=O)(=O)c1ccc(OC(=O)N2CCC(C(O)(c3ccccc3)c3ccccc3)CC2)cc1 | inactive |  | 59 nM | 
6 | CCOc1ccc(NC(=S)N2CCC(C(O)(c3ccccc3)c3ccccc3)CC2)c(F)c1 | inactive |  | 1350 nM | 
7 | CN(C)S(=O)(=O)c1ccc(NC(=S)N2CCC(C(O)(c3ccccc3)c3cccnc3)CC2)cc1 (stereo unspecified) | inactive |  |  | inactive
8 | CCOc1ccc(NC(=S)N2CCC(C(O)(c3ccccc3)c3ccccc3)CC2)cc1 | inactive |  | 190 nM | 
9 | O=S(=O)(c1ccc(NC(=S)N2CCC(C(O)(c3ccccc3)c3ccccc3)CC2)cc1)N1CCCC1 | inactive |  | 117 nM | 
10 | OC(c1ccccc1)(c1ccccc1)C1CCN(C(=S)Nc2ccc(C(F)(F)F)cc2)CC1 | inactive |  | 178 nM | 
11 | CN(C)S(=O)(=O)c1ccc(NC(=S)N2CCC(C(O)(c3ccccc3)c3ccc(F)cc3)CC2)cc1 (stereo unspecified) | inactive |  | 89 nM | 
12 | CC(C)Oc1ccc(NC(=S)N2CCC(C(O)(c3ccccc3)c3ccccc3)CC2)cc1C#N | inactive |  | 899 nM | 
13 | CCOc1ccc(NC(=S)N2CCC(C(O)c3ccccc3)CC2)cc1 (stereo unspecified) | inactive |  |  | inactive
14 | CCOc1ccc(NC(=S)N2CCC(C(O)(c3ccccc3)c3ccccc3)CC2)cc1C#N | inactive |  | 323 nM | 
15 | CCOc1ccc(NC(=S)N2CCC(C(O)(c3ccccc3)c3ccccc3)CC2)c(C(F)(F)F)c1 | inactive |  |  | inactive
16 | CCNS(=O)(=O)c1ccc(NC(=S)N2CCC(C(O)(c3ccccc3)c3ccccc3)CC2)cc1 | inactive |  | 121 nM | 
17 | CCNC(=O)c1ccc(NC(=S)N2CCC(C(O)(c3ccccc3)c3ccccc3)CC2)cc1 | inactive |  | 206 nM | 
18 | CCCc1ccc(NC(=S)N2CCC(C(O)(c3ccccc3)c3ccccc3)CC2)cc1 | inactive |  | 777 nM | 
19 | CCOc1ccc(NC(=S)N2CCC(C(c3ccccc3)c3ccccc3)CC2)cc1 | inactive |  | > 10000 nM | 
20 | CCOC(=O)c1ccc(NC(=S)N2CCC(C(c3ccccc3)c3ccccc3)CC2)cc1 | inactive |  | 6760 nM | 
21 | CCOC(=O)c1cccc(NC(=S)N2CCC(C(O)(c3ccccc3)c3ccccc3)CC2)c1 | inactive | 238 nM |  | 

Row | Compound | Activity [1] | IC50 [2] | IC50 [3] | Activity [4]
22 | Cc1ccc(C)c(NS(=O)(=O)c2cc(C(=O)Nc3ccccc3-c3ccccc3)ccc2C)c1 |  |  | 440 nM | 
23 | O=C(Oc1ccc(S(=O)(=O)N2CCCC2)cc1)N1CCC(C(O)(c2ccccc2)c2ccccc2)CC1 | inactive |  | 49 nM | 
24 | CCOc1ccc(NC(=S)N2CCC(C(O)(c3ccccc3)c3ccccc3)CC2)c(C)c1 | inactive |  |  | inactive
25 | CN(C)S(=O)(=O)c1ccc(NC(=S)N2CCN(C3c4ccccc4NC(=O)c4ccccc43)CC2)cc1 (stereo unspecified) | inactive |  | 67 nM | 
26 | CCN(CC)S(=O)(=O)c1cccc(OC(=O)N2CCC(C(O)(c3ccccc3)c3ccccc3)CC2)c1 | inactive |  |  | inactive
27 | CNC(=O)c1ccc(NC(=S)N2CCC(C(O)(c3ccccc3)c3ccccc3)CC2)cc1 | inactive |  | 1420 nM | 
28 | CCN(CC)c1ccc(NC(=S)N2CCC(C(O)(c3ccccc3)c3ccccc3)CC2)cc1Cl | inactive |  | 85 nM | 
29 | CS(=O)(=O)Nc1ccc(OC(=O)N2CCC(C(O)(c3ccccc3)c3ccccc3)CC2)cc1 | inactive |  | 394 nM | 
30 | CN(C)S(=O)(=O)c1ccc(NC(=S)N2CCC(C(O)(c3ccccc3)c3ccsc3)CC2)cc1 (stereo unspecified) | inactive |  | 248 nM | 
31 | OC(c1ccccc1)(c1ccccc1)C1CCN(C(=S)Nc2ccc(C(F)(F)F)cc2Cl)CC1 | inactive |  |  | inactive
32 | CN(C)S(=O)(=O)c1ccc(NC(=S)N2CCC(C(O)(c3ccccc3)c3ccccc3)CC2)cc1 | inactive |  | 19 nM | 
33 | CN(C)S(=O)(=O)c1ccc(NC(=S)N2CCN(C3c4ccccc4CCc4ccccc43)CC2)cc1 | inactive |  |  | inactive
34 | COC(c1ccccc1)(c1ccccc1)C1CCN(C(=S)Nc2ccc(S(=O)(=O)N(C)C)cc2)CC1 | inactive |  |  | inactive
35 | CN(C)C(=O)c1ccc(NC(=S)N2CCC(C(O)(c3ccccc3)c3ccccc3)CC2)cc1 | inactive |  | 301 nM | 
36 | CCN(CC)S(=O)(=O)c1ccc(NC(=S)N2CCC(C(O)(c3ccccc3)c3ccccc3)CC2)cc1 | inactive |  | 136 nM | 
37 | CN(C)S(=O)(=O)c1ccc(NC(=S)N2CCN(C(c3ccccc3)c3ccccc3)CC2)cc1 | inactive |  | 483 nM | 
38 | COc1cccc(-c2nc(-c3ccc(NC(=O)Cc4ccccc4OC)cc3)no2)c1 |  |  | 1200 nM | 
39 | CS(=O)(=O)c1ccc(OC(=O)N2CCC(C(O)(c3ccccc3)c3ccccc3)CC2)cc1 | inactive |  | 141 nM | 
40 | CCN(CC)C(=O)c1ccc(NC(=S)N2CCC(C(O)(c3ccccc3)c3ccccc3)CC2)cc1 | inactive |  | 78 nM | 
41 | CCOc1ccc(NC(=S)N2CCC(C(O)(c3ccccc3)c3c(C)noc3C)CC2)cc1 (stereo unspecified) | inactive |  | 3300 nM | 
42 | CN(C)S(=O)(=O)c1ccc(NC(=S)N2CCC(C(O)(c3ccccc3)c3ccccn3)CC2)cc1 (stereo unspecified) | inactive |  | 98 nM | 

Row | Compound | Activity [1] | IC50 [2] | IC50 [3] | Activity [4]
43 | CN(C)c1ccc(NC(=S)N2CCC(C(O)(c3ccccc3)c3ccccc3)CC2)cc1 | inactive |  | 612 nM | 
44 | CCOc1ccc(NC(=S)N2CCC(C(O)(c3ccccc3)C3CCCCC3)CC2)cc1 (stereo unspecified) | inactive |  |  | inactive
45 | CCOc1ccc(NC(=S)N2CCN(C(c3ccccc3)c3ccccc3)CC2)cc1 | inactive |  | 371 nM | 
46 | CCN(CC)c1ccc(NC(=S)N2CCC(C(O)(c3ccccc3)c3ccccc3)CC2)cc1 | inactive |  | 72 nM | 
47 | COc1ccc(NC(=S)N2CCC(C(O)(c3ccccc3)c3ccccc3)CC2)cc1C(F)(F)F | inactive | 6080 nM |  | 
48 | OC(c1ccccc1)(c1ccccc1)C1CCN(C(=S)Nc2ccc(N3CCCC3)cc2)CC1 | inactive |  | 1200 nM | 
49 | Cc1ccc(S(=O)(=O)C(c2ccccc2)c2c(C)noc2C)cc1 (stereo unspecified) |  |  | 4400 nM | 
50 | OC(c1ccccc1)(c1ccccc1)C1CCN(C(=S)Nc2ccccc2)CC1 | inactive |  |  | inactive
51 | CCOc1ccc(NC(=S)N2CCC(=C(c3ccccc3)c3ccccc3)CC2)cc1 | inactive |  |  | inactive
52 | COc1ccc(OC(=O)N2CCC(C(O)(c3ccccc3)c3ccccc3)CC2)cc1 | inactive |  | 2680 nM | 
53 | CCN(CC)C(=O)c1cccc(OC(=O)N2CCC(C(O)(c3ccccc3)c3ccccc3)CC2)c1 | inactive |  |  | inactive
54 | CC(C)Oc1ccc(NC(=S)N2CCC(C(O)(c3ccccc3)c3ccccc3)CC2)cc1 | inactive |  | 1770 nM | 
55 | CN(C)S(=O)(=O)c1ccc(OC(=O)N2CCC(C(O)(c3ccccc3)c3ccccc3)CC2)cc1 | inactive |  | 61 nM | 
56 | CC(=O)Nc1ccc(OC(=O)N2CCC(C(O)(c3ccccc3)c3ccccc3)CC2)cc1 | inactive |  |  | inactive
57 | CCN(CC)S(=O)(=O)c1ccc(OC(=O)N2CCC(C(O)(c3ccccc3)c3ccccc3)CC2)cc1 | inactive |  | 12 nM | 
58 | OC(c1ccccc1)(c1ccccc1)C1CCN(C(=S)Nc2ccc(OC(F)(F)F)cc2)CC1 | inactive |  | 1050 nM | 
59 | OC(c1ccccc1)(c1ccccc1)C1CCN(C(=S)Nc2cccc(C(F)(F)F)c2)CC1 | inactive |  |  | inactive
60 | CN(C)S(=O)(=O)c1ccc(NC(=S)N2CCC(C(O)(c3ccccc3)c3ccoc3)CC2)cc1 (stereo unspecified) | inactive |  |  | inactive
61 | CCOc1ccc(OC(=O)N2CCC(C(O)(c3ccccc3)c3ccccc3)CC2)cc1 | inactive |  | 1580 nM | 
62 | CCC(=O)Nc1ccc(OC(=O)N2CCC(C(O)(c3ccccc3)c3ccccc3)CC2)cc1 | inactive |  |  | inactive
